As usually defined, the Ki is a measure of affinity in units of concentration, obtained from inhibition or displacement. Read a high Ki as a looser hold on the target.

The experiment deals with T1, Dimer of Gag-Pol polyprotein [489-587] (Human immunodeficiency virus 1, UniProt P12497).
T1 construct: 489-587
In words: Protease Inhibition Assay. The note with it: pH 5.5; 37 °C. How it is done: Protease activity was measured by continuous chromogenic assay. The chromogenic peptide His-Lys-Ala-Arg-Val-Leu- (p-NO2-Phe)-Glu-Ala-Nleu-Ser (Bachem) was used as a substrate. Reactions were followed by the decrease of absorbance at 300 nm measured by spectrophotometer. Experimental results were analyzed by the nonlinear regression analysis, using a mathematical model for tight binding inhibitors.
Consider `NC(=O)C[C@H](NC(=O)c1ccc2ccccc2n1)C(=O)N[C@@H](Cc1ccccc1)[C@@H](O)CCC(=O)NC(c1cc2ccccc2[nH]1)C1CCCCC1` (stereo partly drawn) [(2S)-N-[(2S,3S)-5-{[cyclohexyl(1H-indol-2-yl)methyl]carbamoyl}-3-hydroxy-1-phenylpentan-2-yl]-2-(quinolin-2-ylformamido)butanediamide], for which the Ki came to 180 nM.
In the case of `COC(=O)[C@@H](NC(=O)[C@@H](NC(=O)CC[C@H](O)[C@H](Cc1ccccc1)NC(=O)[C@H](C)NC(=O)[C@H](C)N)C(C)C)C(C)C` [methyl (2S)-2-[(2S)-2-[(4S,5S)-5-[(2S)-2-[(2S)-2-aminopropanamido]propanamido]-4-hydroxy-6-phenylhexanamido]-3-methylbutanamido]-3-methylbutanoate], affinity was put at a Ki of 18 nM.
As to `NC(=O)C[C@H](NC(=O)c1ccc2ccccc2n1)C(=O)N[C@@H](Cc1ccccc1)[C@@H](O)CCC(=O)NC(c1ccccc1)c1cc2ccccc2[nH]1` (stereo partly drawn) [(2S)-N-[(2S,3S)-3-hydroxy-5-{[1H-indol-2-yl(phenyl)methyl]carbamoyl}-1-phenylpentan-2-yl]-2-(quinolin-2-ylformamido)butanediamide], the Ki came out at 43 nM. This Ki is about 2.4-fold higher than that of the molecule before.
With `C[C@H](N)C(=O)N[C@@H](C)C(=O)N[C@@H](Cc1ccccc1)[C@@H](O)CCC(=O)NC(c1ccccc1)c1nc2ccccc2[nH]1` (stereo partly drawn) [5-(L-Alanyl-L-alanylamino)-4-hydroxy-phenylhexanoic Acid ((1H-BenzimiaazOl-2-yl)phenylmethyl)amide] the figure was 5370 nM; with `NC(=O)C[C@H](NC(=O)c1ccc2ccccc2n1)C(=O)N[C@@H](Cc1ccccc1)[C@@H](O)CCC(=O)NC(c1ccccc1)c1nc2ccccc2[nH]1` (stereo partly drawn) [4-Hydroxy-5-( (N-2-quinaloyl-L-asparagyl)amino)-6-phenylhexanoic Acid (a-(2-benzyimidazolyl)benzyl)amide], 480 nM.
`Cc1cccc(C(NC(=O)CC[C@H](O)[C@H](Cc2ccccc2)NC(=O)[C@H](CC(N)=O)NC(=O)c2ccc3ccccc3n2)c2cc3ccccc3[nH]2)c1` (stereo partly drawn) [4-Hydroxy-5-((N-2-quinaloyl-L-asparagyl)amino)-6-phenylhexanoic Acid (a-(2-indolyl)-m-methylbenzyl)amide]: the affinity, expressed as Ki, was 39 nM.
With `NC(=O)C[C@H](NC(=O)c1ccc2ccccc2n1)C(=O)N[C@@H](Cc1ccccc1)[C@@H](O)C[C@@H](Cc1ccccc1)C(=O)NC(c1ccccc1)c1cc2ccccc2[nH]1` (stereo partly drawn) [2 -Benzyl-4-h ydrox y-5((N -2-quinaloyl-L-asparagyl)amidno)-6-phenylhexanoic Acid (a-(2-indolylbenzyl)amide] the figure was 1280 nM; with `NC(=O)C[C@H](NC(=O)c1ccc2ccccc2n1)C(=O)N[C@@H](Cc1ccccc1)[C@@H](O)CCC(=O)NC(c1cccc(C(F)(F)F)c1)c1cc2ccccc2[nH]1` (stereo partly drawn) [(2S)-N-[(2S,3S)-3-hydroxy-5-({1H-indol-2-yl[3-(trifluoromethyl)phenyl]methyl}carbamoyl)-1-phenylpentan-2-yl]-2-(quinolin-2-ylformamido)butanediamide], 33 nM.

The values above are taken from BindingDB's records for doi:10.1021/jm00041a005 (Agouron Pharmaceuticals, 1994).
